Test results from patent US20050159599A1, “Cyclic compound, process for producing the same, and pest control agent” (priority 2002, published 2005).
Where two headings read alike, the source gives them in different places.

Assays:
Format in all cases: in vivo
Plutella xylostella [1] = assay: Insecticidal effect for Plutella xylostella by immersion treatment of host crop (Test Example 1); conditions: cabbage leaf dipped, second-instar larvae of Plutella xylostella, fifth day after; for rate of dead pests (%): 100 ppm; for pest or weed control at 100 ppm: foliar, 120 h, read-out: rate of dead pests (%)
Experimental: Insecticidal Effect for Plutella xylostella by Immersion Treatment of Host Crop One true leaf of 7 to 8-leave stage cabbage was cut off and dipped in a pesticidal solution for a few seconds, which was prepared by dissolving 5 mg of test compound (represented by the compound Nos. in the above Examples) in 0.5 ml of acetone containing Tween 20 (trade name) and then diluting it to the prescribed concentration (100 ppm) with Dain (trade name, sticker) water diluted 5000-fold. After drying the pesticidal solution, the leaf was put into an ice cream cup (180 ml), and ten second-instar larvae of Plutella xylostella were set free therein. The cup was left in a temperature-controlled breeding room (24° C.). On the fifth day after, the number of surviving Plutella xylostella was examined. The rate of dead pests was calculated by the following formula. rate of dead pests (%)=(number of dead pests/number of test pests)×100

Spodoptera litura [2] = assay: Insecticidal effect for Spodoptera litura by immersion treatment of host crop root (Test Example 4); conditions: 25 ppm, soybean root immersion 5 days, second-instar larvae of Spodoptera litura, fifth day after; for pest or weed control at 25 ppm: 120 h, read-out: rate of dead pests (%)
Experimental: Insecticidal Effect for Spodoptera litura by Immersion Treatment of Host Crop Root Roots of primary leaves developing stage soybean was washed with tap water to remove soil, and then immersed in a pesticidal solution which was prepared by dissolving 5 mg of test compound (represented by the compound Nos. in the above Examples) in 0.5 ml of acetone containing Tween 20 ([…]) with ion-exchange water, and which was filled in a light-shielded Erlenmeyer flask (100 ml). On the fifth day after immersion of root, two primary leaves were cut off, and the leaves were put into an ice cream cup (180 ml). Ten second-instar larvae of Spodoptera litura were set free therein, and the cup was left in a temperature-controlled breeding room (25° C.). On the fifth day after, the number of surviving Spodoptera litura was examined. The rate of dead pests was calculated by the following formula. rate of dead pests (%)=(number of dead pests/number of test pests)×100

Spodoptera litura [3] = assay: Insecticidal effect for Spodoptera litura by spraying treatment to host crop (Test Example 2); conditions: 100 ppm, sprayed on soybean, third-instar larvae of Spodoptera litura, fifth day after; for pest or weed control at 100 ppm: 120 h, read-out: rate of dead pests (%)
Outline: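 Ten third-instar larvae held at 25° C. on two excised primary soybean leaves previously sprayed to dripping with 100 ppm test solution. Mortality (%) calculated from dead versus tested larvae on the fifth day.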

Plutella xylostella [4] = assay: Insecticidal effect for Plutella xylostella by immersion treatment of host crop root (Test Example 3); conditions: for pest or weed control at 25 ppm: Plutella xylostella, 120 h, read-out: rate of dead pests (%)
Experimental: Insecticidal Effect for Plutella xylostella by Immersion Treatment of Host Crop Root
Roots of 4-leave stage cabbage was washed with tap water to remove soil, and then immersed in a pesticidal solution which was prepared by dissolving 5 mg of test compound (represented by the compound Nos. in the above Examples) in 0.5 ml of acetone containing Tween 20 (trade name) and then diluting it to the prescribed concentration (25 ppm) with ion-exchange water, and which was filled in a light-shielded Erlenmeyer flask (100 ml). On the fifth day after immersion of root, the root was cut off, and the stem and leaves were put into an ice cream cup (180 ml). Ten second-instar larvae of Plutella xylostella were set free therein, and the cup was left in a temperature-controlled breeding room (24° C.). On the fifth day after, the number of surviving Plutella xylostella was examined. The rate of dead pests was calculated by the following formula. rate of dead pests (%)=(number of dead pests/number of test pests)×100

[5] = 25 ppm, cabbage root immersed 5 days, ten second-instar larvae on stem and leaves, counted on the fifth day, 24° C.

Compound | rate of dead pests (%) (Plutella xylostella [1]) | rate of dead pests (%) (Spodoptera litura [2]) | rate of dead pests (%) (Spodoptera litura [3]) | rate of dead pests (%) (Plutella xylostella [4]; [5]) | other results
O=C(c1c(F)cccc1Cl)N1COCN(c2ccc(SC(F)(F)F)cc2F)C1=O [I-221] | 100 | 100 | 100 | – | –
CC(=O)N1CN(C(=O)c2c(F)cccc2F)C(=O)N(c2ccc([S+]([O-])C(F)F)cc2F)C1 (stereo not shown) [III-153] | 100 | 100 | 100 | 100 | –
O=C(c1c(F)cccc1F)N1COCN(c2ccc([S+]([O-])C(F)(F)F)c(F)c2)C1=O (stereo not shown) [I-81] | 100 | – | 100 | 100 | –
CS(=O)(=O)N1CN(C(=O)c2c(F)cccc2F)C(=O)N(c2ccc([S+]([O-])C(F)F)cc2F)C1 (stereo not shown) [III-154] | – | 100 | 100 | 100 | –
O=C(c1c(F)cccc1F)N1COCN(c2ccc([S+]([O-])C(F)(F)C(F)(F)C(F)(F)F)cc2F)C1=O (stereo not shown) [I-144, 3-(2,6-difluorobenzoyl)-5-[2-fluoro-4-(1,1,2,2,3,3,3-heptafluoro-1-propylsulfinyl)phenyl]tetrahydro-4H-1,3,5-oxadiazin-4-one] | – | – | – | – | pest or weed control at 25 ppm (Plutella xylostella [4]; in Brassica oleracea): 95%
O=C(c1c(F)cccc1F)N1COCN(c2c(F)cc([S+]([O-])C(F)(F)F)cc2F)C1=O (stereo not shown) [I-105] | – | 100 | 100 | 100 | –
O=C(c1c(F)cccc1F)N1COCN(c2ccc([S+]([O-])C(F)(F)C(F)F)cc2F)C1=O (stereo not shown) [I-23] | – | 100 | 100 | 95 | –
Cc1cc(N2COCN(C(=O)c3c(F)cccc3Cl)C2=O)ccc1[S+]([O-])C(F)(F)F (stereo not shown) [I-249] | – | – | 100 | 95 | –
O=C(c1c(F)cccc1F)N1COCN(c2ccc(S(=O)(=O)C(F)F)cc2F)C1=O [I-43, 3-(2,6-difluorobenzoyl)-5-[4-(difluoromethylsulfonyl)-2-fluorophenyl]tetrahydro-4H-1,3,5-oxadiazin-4-one] | – | – | – | – | pest or weed control at 100 ppm (Plutella xylostella [1]): 100%; pest or weed control at 25 ppm (Spodoptera litura [2]): 100%; pest or weed control at 100 ppm (Spodoptera litura [3]): 100%
O=C(c1c(F)cccc1F)N1CNCN(c2ccc([S+]([O-])C(F)(F)C(F)Cl)cc2F)C1=O (stereo not shown) [III-91] | – | 95 | 100 | 100 | –
O=C(c1c(F)cccc1F)N1COCN(c2ccc([S+]([O-])C(F)(F)C(F)Cl)cc2Cl)C1=O (stereo not shown) [I-14] | – | 100 | 100 | 100 | –
O=C(c1c(F)cccc1F)N1COCN(c2ccc([S+]([O-])C(F)(F)C(F)(F)F)cc2F)C1=O (stereo not shown) [I-129, 3-(2,6-difluorobenzoyl)-5-[2-fluoro-4-(1,1,2,2,2-pentafluoroethylsulfinyl)phenyl]tetrahydro-4H-1,3,5-oxadiazin-4-one] | – | – | – | – | pest or weed control at 25 ppm (Plutella xylostella [4]; [5]): 100%; pest or weed control at 25 ppm (Spodoptera litura [2]): 100%; pest or weed control at 100 ppm (Spodoptera litura [3]): 100%
Cc1cc([S+]([O-])C(F)(F)F)ccc1N1COCN(C(=O)c2c(F)cccc2F)C1=O (stereo not shown) [I-69] | – | – | 100 | 100 | –
C[S+]([O-])c1ccc(N2COCN(C(=O)c3c(F)cccc3Cl)C2=O)c(F)c1 (stereo not shown) [I-206] | 100 | 100 | – | – | –
O=C(c1c(F)cccc1Cl)N1COCN(c2ccc(SC(F)F)cc2F)C1=O [I-218] | 100 | 100 | 100 | – | –
COC(=O)N1CN(C(=O)c2c(F)cccc2F)C(=O)N(c2cc(Cl)c(F)c(Cl)c2F)C1 [III-61] | 100 | 100 | – | – | –
Cc1cc([S+]([O-])C(F)(F)F)c(F)cc1N1COCN(C(=O)c2c(F)cccc2F)C1=O (stereo not shown) [I-126] | – | – | 100 | 100 | –
COC(=O)C(=O)N1CN(C(=O)c2c(F)cccc2F)C(=O)N(c2ccc(SC(F)(F)C(F)Cl)cc2F)C1 (stereo not shown) [III-79] | 100 | 100 | 100 | – | –
Cc1c(N2COCN(C(=O)c3c(F)cccc3F)C2=O)ccc([S+]([O-])C(F)(F)F)c1C (stereo not shown) [I-84] | – | – | 100 | 100 | –
O=C(c1c(F)cccc1F)N1COCN(c2c(F)cc([S+]([O-])C(F)(F)F)cc2Cl)C1=O (stereo not shown) [I-102] | – | – | 100 | 100 | –
Cc1c(N2COCN(C(=O)c3c(F)cccc3F)C2=O)ccc([S+]([O-])C(F)(F)F)c1Cl (stereo not shown) [I-123] | – | – | 100 | 100 | –
O=C(c1c(F)cccc1F)N1COCN(c2ccc([S+]([O-])C(F)(F)C(F)F)cc2Cl)C1=O (stereo not shown) [I-17] | 100 | 100 | 100 | – | –
O=C(c1c(F)cccc1F)N1CN=CN(c2cc(Cl)c(F)c(Cl)c2F)C1=O [V-4, 1-(3,5-dichloro-2,4-difluorophenyl)-3-(2,6-difluorobenzoyl)-3,4-dihydro-1,3,5-triazin-2(1H)-one] | – | – | – | – | pest or weed control at 100 ppm (Plutella xylostella [1]): 100%; pest or weed control at 25 ppm (Plutella xylostella [4]; [5]): 95%; pest or weed control at 100 ppm (Spodoptera litura [3]): 100%
O=C(c1c(F)cccc1F)N1COCN(c2cc(F)c([S+]([O-])C(F)(F)F)cc2F)C1=O (stereo not shown) [I-111] | – | – | 100 | 100 | –
O=C(c1c(F)cccc1F)N1COCN(c2ccc([S+]([O-])C(F)(F)F)cc2Cl)C1=O (stereo not shown) [I-75] | – | 100 | 100 | 95 | –
O=C(c1c(F)cccc1F)N1COCN(c2ccc([S+]([O-])C(F)(F)F)c(Cl)c2)C1=O (stereo not shown) [I-78] | – | 100 | 100 | 90 | –
O=C(c1c(F)cccc1Cl)N1COCN(c2ccc([S+]([O-])C(F)(F)C(F)(F)C(F)(F)F)cc2F)C1=O (stereo not shown) [I-321] | – | 100 | 100 | 95 | –
Cc1cc(N2COCN(C(=O)c3c(F)cccc3F)C2=O)ccc1[S+]([O-])C(F)(F)F (stereo not shown) [I-72] | – | – | 100 | 100 | –
O=C(c1c(F)cccc1F)N1COCN(c2ccc(SCC(F)(F)F)cc2F)C1=O [I-34] | 100 | – | 100 | 100 | –
Cc1cc(N2COCN(C(=O)c3c(F)cccc3F)C2=O)ccc1SC(F)(F)F [I-71] | – | 90 | 100 | 95 | –
